Assay results reported in patent US12599136B2, “Substituted isophthalic acid diamides and their use as herbicides” (Bayer Aktiengesellschaft, priority 2020, dated 2026).

Key:
Format in all cases: in vivo
[1] = tested on: Setaria viridis; assay: Pre-emergence herbicidal action against SETVI
Summary of the method: (§1)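 Visual rating at 3 weeks vs untreated pots; 0–100% scale, 100% = plants died. Treatment: aqueous WP/EC spray onto covering soil, 600–800 l/ha, 0.2% wetter, seeds in sandy loam.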

[2] = tested on: Avena fatua; assay: Post-emergence herbicidal action against AVEFA; conditions: visual assessment about 3 weeks after treatment
Summary of the method: (§2)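 Greenhouse pot plants in sandy loam were sprayed at the one-leaf stage, 2 to 3 weeks after sowing, with WP or EC formulations as aqueous suspension or emulsion (600 to 800 l/ha water, 0.2% wetting agent). About 3 weeks later, damage was scored visually against untreated controls as % action (100% = dead, 0% = like control).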

[3] = tested on: Matricaria inodora; assay: Post-emergence herbicidal action against MATIN; conditions: visual assessment about 3 weeks after treatment
Summary of the method: as §2

[4] = tested on: Stellaria media; assay: Post-emergence herbicidal action against STEME; conditions: visual assessment about 3 weeks after treatment
Summary of the method: as §2

[5] = tested on: Viola tricolor; assay: Post-emergence herbicidal action against VIOTR
Summary of the method: as §2

[6] = tested on: Abutilon theophrasti; assay: Pre-emergence herbicidal action against ABUTH; conditions: visual score after 3 weeks vs untreated controls
Summary of the method: as §1

[7] = tested on: Alopecurus myosuroides; assay: Post-emergence herbicidal action against ALOMY
Summary of the method: as §2

[8] = tested on: Matricaria inodora; assay: Pre-emergence herbicidal action against MATIN; conditions: visual score after 3 weeks vs untreated controls
Summary of the method: as §1

[9] = tested on: Amaranthus retroflexus; assay: Post-emergence herbicidal action against AMARE; conditions: visual assessment about 3 weeks after treatment
Summary of the method: as §2

[10] = tested on: Hordeum murinum; assay: Pre-emergence herbicidal action against HORMU; conditions: visual score after 3 weeks vs untreated controls
Excerpt: Seeds of monocotyledonous and dicotyledonous weed plants and crop plants are laid out in sandy loam soil in wood-fiber pots and covered with soil. The compounds of the invention, formulated in the form of wettable powders (WP) or as emulsion concentrates (EC), are then applied to the surface of the covering soil in the form of an aqueous suspension or emulsion at a water application rate equivalent to 600 to 800 l/ha, with addition of 0.2% wetting agent. After the treatment, the pots are placed in a greenhouse and kept under good growth conditions for the trial plants. The damage to the test plants is scored visually after a test period of 3 weeks by comparison with untreated controls (herbicidal activity in percent (%): 100% activity=the plants have died, 0% activity=like control plants). […] The tables below illustrate, in an illustrative manner, the post-emergence herbicidal action of the compounds of the invention, the herbicidal activity being stated in percent.

[11] = tested on: Alopecurus myosuroides; assay: Pre-emergence herbicidal action against ALOMY; conditions: visual score after 3 weeks vs untreated controls
Summary of the method: as §1

[12] = tested on: Echinochloa crus-galli; assay: Pre-emergence herbicidal action against ECHCG; conditions: visual score after 3 weeks vs untreated controls
Summary of the method: as §1

[13] = tested on: Hordeum murinum; assay: Post-emergence herbicidal action against HORMU
Protocol: Seeds of monocotyledonous and dicotyledonous weed and crop plants are laid out in sandy loam soil in wood-fiber pots, covered with soil and cultivated in a greenhouse under good growth conditions. 2 to 3 weeks after sowing, the test plants are treated at the one-leaf stage. The compounds of the invention, formulated in the form of wettable powders (WP) or as emulsion concentrates (EC), are then sprayed onto the green parts of the plants in the form of an aqueous suspension or emulsion at a water application rate equivalent to 600 to 800 l/ha, with addition of 0.2% wetting agent. After the test plants have been left to stand in the greenhouse under optimal growth conditions for about 3 weeks, the action of the preparations is assessed visually in comparison to untreated controls (herbicidal action in percent (%): 100% activity=the plants have died, 0% activity=like control plants). […] The tables below illustrate, in an illustrative manner, the post-emergence herbicidal action of the compounds of the invention, the herbicidal activity being stated in percent.

[14] = tested on: Avena fatua; assay: Pre-emergence herbicidal action against AVEFA; conditions: visual score after 3 weeks vs untreated controls
Summary of the method: as §1

[15] = tested on: Abutilon theophrasti; assay: Post-emergence herbicidal action against ABUTH
Summary of the method: as §2

[16] = tested on: Pharbitis purpurea; assay: Pre-emergence herbicidal action against PHBPU; conditions: 320 g/ha; visual score after 3 weeks vs untreated controls
Summary of the method: as §1

[17] = tested on: Viola tricolor; assay: Pre-emergence herbicidal action against VIOTR
Summary of the method: as §1

[18] = tested on: Lolium rigidum; assay: Pre-emergence herbicidal action against LOLRI; conditions: 320 g/ha
Summary of the method: as §1

[19] = tested on: Echinochloa crus-galli; assay: Post-emergence herbicidal action against ECHCG; conditions: visual assessment about 3 weeks after treatment
Summary of the method: as §2

[20] = tested on: Cyperus esculentus; assay: Pre-emergence herbicidal action against CYPES; conditions: visual score after 3 weeks vs untreated controls
Summary of the method: as §1

[21] = tested on: Setaria viridis; assay: Post-emergence herbicidal action against SETVI; conditions: visual assessment about 3 weeks after treatment
Summary of the method: as §2

[22] = tested on: Pharbitis purpurea; assay: Post-emergence herbicidal action against PHBPU; conditions: visual assessment about 3 weeks after treatment
Summary of the method: as §2

[23] = tested on: Stellaria media; assay: Pre-emergence herbicidal action against STEME
Summary of the method: as §1

[24] = tested on: Amaranthus retroflexus; assay: Pre-emergence herbicidal action against AMARE; conditions: visual score after 3 weeks vs untreated controls
Summary of the method: as §1

[25] = tested on: Veronica persica; assay: Pre-emergence herbicidal action against VERPE; conditions: 320 g/ha
Summary of the method: as §1

CCCn1nnnc1NC(=O)c1ccc(C(F)(F)F)c(C(=O)N(C)C)c1Cl [Example 3-123]
100%: Pre-emergence action against SETVI ([1]; 80 g/ha) | Pre-emergence action against SETVI ([1]; 320 g/ha) | Post-emergence action against AVEFA in % ([2]; 20 g/ha) | Post-emergence action against AVEFA in % ([2]; 80 g/ha) | Post-emergence action against MATIN in % ([3]; 20 g/ha) | Post-emergence action against MATIN in % ([3]; 80 g/ha) | Post-emergence action against STEME in % ([4]; 20 g/ha) | Post-emergence action against STEME in % ([4]; 80 g/ha) | Post-emergence action against VIOTR in % ([5]; 20 g/ha) | Post-emergence action against VIOTR in % ([5]; 80 g/ha) | Pre-emergence action against ABUTH ([6]; 80 g/ha) | Pre-emergence action against ABUTH ([6]; Dosage column 320 g/ha (heading prints 3200 g/ha)) | Post-emergence action against ALOMY ([7]; 80 g/ha) | Pre-emergence action against MATIN ([8]; 320 g/ha) | Post-emergence action against AMARE in % ([9]; 5 g/ha) | Post-emergence action against AMARE in % ([9]; 20 g/ha) | Post-emergence action against AMARE in % ([9]; 80 g/ha) | Pre-emergence action against HORMU ([10]; 320 g/ha) | Pre-emergence action against ECHCG ([12]; 320 g/ha) | Post-emergence action against HORMU in % ([13]; 80 g/ha) | Pre-emergence action against AVEFA ([14]; 320 g/ha) | Post-emergence action against ABUTH ([15]; 5 g/ha) | Post-emergence action against ABUTH ([15]; 20 g/ha) | Post-emergence action against ABUTH ([15]; 80 g/ha) | Pre-emergence action against VIOTR ([17]; 320 g/ha) | Post-emergence action against ECHCG in % ([19]; 20 g/ha) | Post-emergence action against ECHCG in % ([19]; 80 g/ha) | Post-emergence action against SETVI in % ([21]; 5 g/ha) | Post-emergence action against SETVI in % ([21]; 20 g/ha) | Post-emergence action against SETVI in % ([21]; 80 g/ha) | Pre-emergence action against STEME ([23]; 80 g/ha) | Pre-emergence action against STEME ([23]; 320 g/ha) | Pre-emergence action against AMARE ([24]; 20 g/ha) | Pre-emergence action against AMARE ([24]; 80 g/ha) | Pre-emergence action against AMARE ([24]; 320 g/ha)
90%: Post-emergence action against MATIN in % ([3]; 5 g/ha) | Post-emergence action against STEME in % ([4]; 5 g/ha) | Post-emergence action against VIOTR in % ([5]; 5 g/ha) | Pre-emergence action against MATIN ([8]; 80 g/ha) | Pre-emergence action against ALOMY ([11]; 320 g/ha) | Post-emergence action against HORMU in % ([13]; 20 g/ha) | Pre-emergence action against PHBPU [16] | Post-emergence action against ECHCG in % ([19]; 5 g/ha) | Pre-emergence action against CYPES ([20]; 320 g/ha) | Post-emergence action against PHBPU in % ([22]; 20 g/ha) | Post-emergence action against PHBPU in % ([22]; 80 g/ha) | Pre-emergence action against STEME ([23]; 20 g/ha) | Pre-emergence action against VERPE [25]
80%: Post-emergence action against AVEFA in % ([2]; 5 g/ha) | Post-emergence action against ALOMY ([7]; 20 g/ha) | Pre-emergence action against MATIN ([8]; 20 g/ha) | Pre-emergence action against HORMU ([10]; 80 g/ha) | Pre-emergence action against ALOMY ([11]; 80 g/ha) | Pre-emergence action against ECHCG ([12]; 80 g/ha) | Pre-emergence action against AVEFA ([14]; 80 g/ha) | Pre-emergence action against VIOTR ([17]; 80 g/ha) | Pre-emergence action against LOLRI [18] | Pre-emergence action against CYPES ([20]; 80 g/ha) | Post-emergence action against PHBPU in % ([22]; 5 g/ha)
